Assay results as given in US11739098B2 (BRISTOL-MYERS SQUIBB COMPANY, priority 2017, dated 2023).
pIC50: −log10 of the molar value.

Assays:
Format in all cases: cell-based
human TLR8 = target: T1, human TLR8 (Homo sapiens, UniProt Q9NR97); assay: TLR8 inhibition reporter assay (HEK-Blue cells, SEAP reporter, R848 stimulation); details: HEK-Blue cells overexpressing human TLR8, SEAP reporter, R848 15.9 μM
T1 construct: host or cells: HEK-Blue cells (HEK293-derived reporter line)
T1 sequence (Q9NR97 27-1041): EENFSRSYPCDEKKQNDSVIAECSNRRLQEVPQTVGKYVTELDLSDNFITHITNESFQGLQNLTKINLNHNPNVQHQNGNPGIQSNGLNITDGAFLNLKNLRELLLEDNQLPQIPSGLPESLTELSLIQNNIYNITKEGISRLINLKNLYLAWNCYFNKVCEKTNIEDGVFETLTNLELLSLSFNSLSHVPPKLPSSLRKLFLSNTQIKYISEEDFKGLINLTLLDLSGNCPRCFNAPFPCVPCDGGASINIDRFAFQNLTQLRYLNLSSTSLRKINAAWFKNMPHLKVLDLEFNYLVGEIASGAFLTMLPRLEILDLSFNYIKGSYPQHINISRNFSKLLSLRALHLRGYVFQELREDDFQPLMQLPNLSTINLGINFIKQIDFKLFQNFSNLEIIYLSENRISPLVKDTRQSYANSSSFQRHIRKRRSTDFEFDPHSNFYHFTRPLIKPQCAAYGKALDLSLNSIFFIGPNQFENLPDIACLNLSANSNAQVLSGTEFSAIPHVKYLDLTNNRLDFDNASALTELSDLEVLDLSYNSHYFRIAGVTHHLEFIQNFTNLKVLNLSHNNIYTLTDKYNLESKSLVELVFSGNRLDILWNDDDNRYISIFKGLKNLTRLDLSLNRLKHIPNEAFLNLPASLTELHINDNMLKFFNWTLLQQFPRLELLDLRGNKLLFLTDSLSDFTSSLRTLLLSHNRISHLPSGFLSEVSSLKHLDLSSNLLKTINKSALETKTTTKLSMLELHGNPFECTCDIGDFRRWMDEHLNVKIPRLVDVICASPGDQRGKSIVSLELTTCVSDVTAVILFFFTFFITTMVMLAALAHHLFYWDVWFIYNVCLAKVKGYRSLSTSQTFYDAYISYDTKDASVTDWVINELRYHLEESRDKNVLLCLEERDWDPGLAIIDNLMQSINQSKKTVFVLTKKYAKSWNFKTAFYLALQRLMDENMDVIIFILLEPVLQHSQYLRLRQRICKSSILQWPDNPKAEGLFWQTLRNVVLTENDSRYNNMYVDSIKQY
In short: (§1)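 Read-out is SEAP activity in HEK-Blue detection medium after 22 h at 37 °C, converted to percent inhibition against agonist-plus-DMSO and reference-inhibitor controls. Cells saw compound (0.05 nM–50 μM, 30 min, room temperature) before gardiquimod 7.5 μM, R848 15.9 μM or ODN2006 5 nM for TLR7, TLR8 and TLR9, respectively.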

human TLR9 = target: T2, human TLR9 (Homo sapiens, UniProt Q9NR96); assay: TLR9 inhibition reporter assay (HEK-Blue cells, SEAP reporter, ODN2006 stimulation); details: HEK-Blue cells overexpressing human TLR9, SEAP reporter, ODN2006 5 nM
T2 construct: host or cells: HEK-Blue cells (HEK293-derived reporter line)
T2 sequence (Q9NR96 26-1032): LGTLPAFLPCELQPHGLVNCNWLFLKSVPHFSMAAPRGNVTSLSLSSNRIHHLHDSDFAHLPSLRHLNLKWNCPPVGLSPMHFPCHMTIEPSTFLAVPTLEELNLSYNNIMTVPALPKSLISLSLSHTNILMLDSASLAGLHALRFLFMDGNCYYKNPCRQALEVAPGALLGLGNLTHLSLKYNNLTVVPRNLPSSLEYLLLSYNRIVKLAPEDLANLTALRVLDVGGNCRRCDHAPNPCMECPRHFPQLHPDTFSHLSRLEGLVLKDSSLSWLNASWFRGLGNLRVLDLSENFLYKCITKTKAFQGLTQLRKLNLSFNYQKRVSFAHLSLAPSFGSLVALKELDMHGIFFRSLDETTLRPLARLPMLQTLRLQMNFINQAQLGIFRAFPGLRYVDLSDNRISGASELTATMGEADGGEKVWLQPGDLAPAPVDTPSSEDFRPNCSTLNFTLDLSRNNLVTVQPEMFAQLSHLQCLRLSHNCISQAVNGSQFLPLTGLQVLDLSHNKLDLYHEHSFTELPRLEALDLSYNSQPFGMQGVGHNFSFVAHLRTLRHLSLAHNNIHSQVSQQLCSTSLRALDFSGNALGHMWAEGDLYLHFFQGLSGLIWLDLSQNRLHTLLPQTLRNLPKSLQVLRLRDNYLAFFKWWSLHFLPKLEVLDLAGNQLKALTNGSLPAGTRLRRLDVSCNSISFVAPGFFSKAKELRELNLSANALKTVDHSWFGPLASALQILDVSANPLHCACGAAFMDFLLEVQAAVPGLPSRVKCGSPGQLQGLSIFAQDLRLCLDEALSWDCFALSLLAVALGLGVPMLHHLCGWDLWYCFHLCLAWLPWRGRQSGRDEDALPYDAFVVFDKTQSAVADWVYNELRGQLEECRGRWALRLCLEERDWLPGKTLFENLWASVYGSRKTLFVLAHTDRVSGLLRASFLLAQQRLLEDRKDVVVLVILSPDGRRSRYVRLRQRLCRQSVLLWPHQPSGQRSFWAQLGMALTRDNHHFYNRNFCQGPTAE
In short: as §1

human TLR7 = target: T3, human TLR7 (Homo sapiens, UniProt Q9NYK1); assay: TLR7 inhibition reporter assay (HEK-Blue cells, SEAP reporter, gardiquimod stimulation); details: HEK-Blue cells overexpressing human TLR7, SEAP reporter, gardiquimod 7.5 μM
T3 construct: host or cells: HEK-Blue cells (HEK293-derived reporter line)
T3 sequence (Q9NYK1 27-1049): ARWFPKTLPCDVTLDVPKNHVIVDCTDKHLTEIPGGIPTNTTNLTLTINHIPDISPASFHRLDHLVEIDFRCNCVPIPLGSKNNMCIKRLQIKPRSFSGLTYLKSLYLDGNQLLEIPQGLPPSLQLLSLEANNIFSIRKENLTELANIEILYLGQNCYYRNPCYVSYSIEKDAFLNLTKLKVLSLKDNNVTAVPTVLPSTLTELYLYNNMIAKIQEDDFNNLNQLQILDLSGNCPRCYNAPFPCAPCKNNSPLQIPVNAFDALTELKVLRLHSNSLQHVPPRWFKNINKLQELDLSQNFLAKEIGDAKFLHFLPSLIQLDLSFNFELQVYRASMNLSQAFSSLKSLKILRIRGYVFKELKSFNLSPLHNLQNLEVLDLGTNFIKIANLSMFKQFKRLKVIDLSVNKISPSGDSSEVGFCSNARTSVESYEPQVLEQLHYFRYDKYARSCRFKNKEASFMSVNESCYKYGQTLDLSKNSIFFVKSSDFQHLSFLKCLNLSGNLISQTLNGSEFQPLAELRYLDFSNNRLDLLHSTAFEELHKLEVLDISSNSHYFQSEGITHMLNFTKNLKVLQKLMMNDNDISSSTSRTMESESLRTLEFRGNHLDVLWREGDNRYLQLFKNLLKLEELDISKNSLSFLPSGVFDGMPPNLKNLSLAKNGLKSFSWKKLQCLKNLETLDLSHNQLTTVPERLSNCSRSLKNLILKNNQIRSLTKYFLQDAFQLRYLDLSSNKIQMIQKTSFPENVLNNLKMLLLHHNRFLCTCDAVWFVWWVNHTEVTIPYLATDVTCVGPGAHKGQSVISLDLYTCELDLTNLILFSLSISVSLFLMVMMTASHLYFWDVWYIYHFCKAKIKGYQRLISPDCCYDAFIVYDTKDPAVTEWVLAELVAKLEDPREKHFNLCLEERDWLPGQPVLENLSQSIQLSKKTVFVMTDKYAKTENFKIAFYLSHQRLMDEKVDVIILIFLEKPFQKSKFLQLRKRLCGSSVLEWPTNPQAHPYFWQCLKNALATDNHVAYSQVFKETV
In short: as §1

Row | Structure (SMILES) | pIC50 (human TLR8) | pIC50 (human TLR9) | pIC50 (human TLR7)
1 | Cc1cn2cc(-c3[nH]c4ccc(C5CCN(C(=O)CC(C)(C)O)CC5)cc4c3C(C)C)c(C)cc2n1 [Example 597, 1-(4-(2-(2,7-dimethylimidazo[1,2-a]pyridin-6-yl)-3-isopropyl-1H-indol-5-yl)piperidin-1-yl)-3-hydroxy-3-methylbutan-1-one] | < 5.51 | 4.30 to 6.00 | 6.00 to 7.00
2 | CC(C)c1c(-c2ccnc3[nH]ncc23)[nH]c2ccc(C3CCN(C4CCNCC4C)CC3)cc12 (stereo not drawn) [Example 834, 4-(3-isopropyl-5-(3′-methyl-[1,4′-bipiperidin]-4-yl)-1H-indol-2-yl)-1H-pyrazolo[3,4-b]pyridine] | > 7.00 | 6.00 to 7.00 | > 7.00
3 | Cc1nnn2ccc(-c3[nH]c4ccc(C5CCN(Cc6ccn(C)n6)CC5)cc4c3C(C)C)cc12 [Example 888, 5-(3-isopropyl-5-(1-((1-methyl-1H-pyrazol-3-yl)methyl)piperidin-4-yl)-1H-indol-2-yl)-3-methyl-[1,2,3]triazolo[1,5-a]pyridine] | > 7.00 | 4.30 to 6.00 | > 7.00
4 | CNCC(=O)N1CCC(c2ccc3[nH]c(-c4cc(C)c5ncccc5c4)c(C(C)C)c3c2)CC1 [Example 560, 1-(4-(3-isopropyl-2-(8-methylquinolin-6-yl)-1H-indol-5-yl)piperidin-1-yl)-2-(methylamino)ethan-1-one] | > 7.00 | 4.30 to 6.00 | > 7.00
5 | CNC(=O)c1cn2cc(-c3[nH]c4ccc(C5CCN(CC(=O)N(C)C)CC5)cc4c3C(C)C)cc(C)c2n1 [Example 346, 6-(5-(1-(2-(dimethylamino)-2-oxoethyl)piperidin-4-yl)-3-isopropyl-1H-indol-2-yl)-N,8-dimethylimidazo[1,2-a]pyridine-2-carboxamide] | > 7.00 | 4.30 to 6.00 | > 7.00
6 | Cc1cc(-c2[nH]c3ccc(C4CCN(S(=O)(=O)CCN(C)C)CC4)cc3c2C(C)C)cn2nnnc12 [Example 617, 2-((4-(3-isopropyl-2-(8-methyltetrazolo[1,5-a]pyridin-6-yl)-1H-indol-5-yl)piperidin-1-yl)sulfonyl)-N,N-dimethylethan-1-amine] | > 7.00 | 4.30 to 6.00 | > 7.00
7 | CC(C)c1c(-c2ccnc3[nH]ncc23)[nH]c2ccc(C3CCN(C(=O)CNCC(C)(C)C)CC3)cc12 [Example 589, 1-(4-(3-isopropyl-2-(1H-pyrazolo[3,4-b]pyridin-4-yl)-1H-indol-5-yl)piperidin-1-yl)-2-(neopentylamino)ethan-1-one] | > 7.00 | 4.30 to 6.00 | > 7.00
8 | CC(C)c1c(-c2ccc3nccn3c2)[nH]c2ccc(C3CCN(C(=O)C4CC(=O)N(C)C4)CC3)cc12 (stereo not drawn) [Example 645, 4-(4-(2-(imidazo[1,2-a]pyridin-6-yl)-3-isopropyl-1H-indol-5-yl)piperidine-1-carbonyl)-1-methylpyrrolidin-2-one] | 6.00 to 7.00 | < 4.30 | > 7.00
9 | CC(C)c1c(-c2cnc3ncccn23)[nH]c2ccc(C3CCN(CC(=O)N(C)C)CC3)cc12 [Example 290, 2-(4-(2-(imidazo[1,2-a]pyrimidin-3-yl)-3-isopropyl-1H-indol-5-yl)piperidin-1-yl)-N,N-dimethylacetamide] | > 7.00 | 4.30 to 6.00 | 6.00 to 7.00

The remaining lines, values ahead:

Row | pIC50 (human TLR8) | pIC50 (human TLR9) | pIC50 (human TLR7) | Structure (SMILES)
10 | > 7.00 | 4.30 to 6.00 | > 7.00 | Cc1cc(-c2[nH]c3ccc(C4CCN(C(=O)[C@@H]5C[C@@H](O)CN5)CC4)cc3c2C(C)C)cc2ncnn12 [Example 537, ((2S,4R)-4-hydroxypyrrolidin-2-yl)(4-(3-isopropyl-2-(5-methyl-[1,2,4]triazolo[1,5-a]pyridin-7-yl)-1H-indol-5-yl)piperidin-1-yl)methanone]
11 | > 7.00 | > 7.00 | > 7.00 | CNCCN1CCC(c2ccc3[nH]c(-c4ccc5nccn5c4)c(CC(F)F)c3c2)CC1 [Example 681, 2-(4-(3-(2,2-difluoroethyl)-2-(imidazo[1,2-a]pyridin-6-yl)-1H-indol-5-yl)piperidin-1-yl)-N-methylethan-1-amine]
12 | > 7.00 | 6.00 to 7.00 | > 7.00 | Cc1cc(-c2[nH]c3ccc(C4CCN(CC#N)CC4)cc3c2C(C)C)cn2ccnc12 [Example 951, 2-(4-(3-isopropyl-2-(8-methylimidazo[1,2-a]pyridin-6-yl)-1H-indol-5-yl)piperidin-1-yl)acetonitrile]
13 | > 7.00 | 4.30 to 6.00 | > 7.00 | CNC(=O)CN1CCC(c2ccc3[nH]c(-c4ccn5nccc5c4)c(C(C)C)c3c2)CC1 [Example 405, 2-(4-(3-isopropyl-2-(pyrazolo[1,5-a]pyridin-5-yl)-1H-indol-5-yl)piperidin-1-yl)-N-methylacetamide]
